# From patent publication US6943924B2, “Apparatus and method for digital holographic imaging” (Ecole Polytechnique Federale de Lausanne (EPFL), priority 2001, dated 2005)
# pEC50: −log10 of the molar value.
# System: cultured mouse cortical neurons
# Experiment: Digital holographic imaging (DHI) of glutamate-mediated morphological changes (phase/OPL signal) in neurons
# Type: cell-based
# From the text: FIG. 3 presents an example of application of the present invention to image living cells in culture enclosed in a perfusion chamber 30 filled with a physiological solution 37. […] A CCD camera 35 records the hologram. The hologram is produced by the interference with a reference wave 36. A numerical procedure is then applied to reconstruct the hologram. The obtained phase-contrast image can be presented in 3D perspective, as presented for example in FIG. 4d.
# From the quantitative phase-contrast image, quantitative data about the cell morphology can be obtained. The refractive index, at the wavelength of 633 nm, of the perfused solution nm=1.3336±0.0002, was measured with an Abbe refractometer. By assuming, in first approximation, a constant and homogeneous cellular refractive index ns=1.365, one can estimate that an phase of 10 degree corresponds to a cellular thickness d=0.6 μm. Using this relation between phase and thickness, phase measurements extracted from specific pixels of the quantitative phase-contrast image presented FIG. 3c, yields a thickness of 1-3 μm for the neuronal processes and of approximately 8 μm for the cell body. Even with the assumption of a homogeneous distribution of intracellular refractive index (which can be discussed given a certain degree of heterogeneity of its constituents), these estimations of cell morphology give realistic values of typical cell dimensions as described in the literature for the mouse cortical neurons presented here. Using the same assumption for refractive index of the cell, and based on a phase measurement accuracy of 0.7 degree, that is dictated by experimental opto-mechanical noise, we obtain an axial (or vertical) resolution of 40 nanometers.
# As an example of application of the present invention, the present invention has been applied to study the effects of an excitatory neurotransmitter (glutamate) on the morphology of cultured mouse cortical neurons. The influence of glutamate on neuron morphology has been already described as resulting from excitotoxicity, for high concentrations (20-500 μM) and long exposures of several minutes. […] It has also been established that this effect occurs in response to the activation of N-methyl-D-aspartate (NMDA) receptors. FIG. 4a presents the temporal evolution of the phase signal measured, in real-time by DHI, in the domain delimited by a black rectangle in FIG. 4b, which presents a typical example of a quantitative phase contrast image of a living mouse cortical neuron immersed in a physiological solution. […] These pulses of pharmacological agents are indicated by black triangles in FIG. 4a. […] The concentrations of GLUT, are respectively 15 μM, 10 μM, 15 μM and 20 μM. At instants indicated by black triangles 45 and 46, 400 μM of kynurenate (KYN), a broad spectrum ionotropic glutamate receptor antagonist, has been added to GLUT. […] These OPL increases could be reproduced several times over periods of more than three hours. […] A concentration-response curve (FIG. 4c) has been established on the basis of 5 different experiments. As response amplitudes vary from cell to cell, results were normalized with respect to the maximal response which occurred at a concentration of ˜15 μM. […] Without glycine cells started to respond at glutamate concentrations higher than 15 μM and for only ˜25% of cells (vs. ˜80% in the presence of glycine). As glycine is an NMDA receptor co-agonist, this behavior further emphasizes the role these receptors in the glutamate-evoked responses. The maximum amplitude of a typical phase increase is ˜10 degree representing ˜5% of the initial cellular phase. If we assume once again a constant cellular refractive index (ns=1.365), this corresponds to an increase in the vertical (z) axis of ˜0.6 μm.
smiles,measurement,setting,value
"O=C(O)c1cc(=O)c2ccccc2[nH]1 [KYN, kynurenate]",effect on glutamate-evoked phase signal,400 μM added to GLUT,No increase of the phase signal occurs
C[C@]12N[C@H](Cc3ccccc31)c1ccccc12 [MK-801],effect on glutamate-evoked phase signal,5 μM added to GLUT,inhibited
N[C@@H](CCC(=O)O)C(=O)O [glutamate],maximum amplitude of a typical phase increase,,~10 degree
same,maximum phase increase as share of the initial cellular phase,,~5%
same,pEC50,"20 seconds pulses, glycine (3 μM) in perfusion solutions, 5 different experiments, normalized to maximal response, read-out: EC50 of glutamate-evoked phase response (Hill equation fit of concentration-response curve)",~5.12
same,phase signal on application alone,"GLUT 15, 10, 15 and 20 μM pulses of 20 seconds",Marked phase increases
same,increase in the vertical (z) axis,assuming constant cellular refractive index ns=1.365,~0.6 μm
same,Hill coefficient,"concentration-response curve, glycine (3 μM) present",3.75±0.4
same,concentration at which the maximal response occurred,glycine (3 μM) present,~15 µM
same,cells responding,in the presence of glycine,~80%
same,cells responding,without glycine,~25%
same,glutamate concentration at which cells started to respond,without glycine,higher than 15 μM
